Test results from patent publication US20060148059A1, “Salt tolerant l-myo-inositol 1-phosphate synthase and the process of obtaining the same” (priority 2002, published 2006).
Where two headings read alike, the source gives them in different places.

Columns and labels:
[1] = system: Oryza sativa L-myo-inositol 1-phosphate synthase (RINO), native; details: data from RayChaudhury et al. (1997); cited from earlier work
[2] = pH and temperature optimum of enzyme activity; assay type: biochemical
Experimental: The purified bacterially expressed RINO1 and PINO1 proteins were characterized for their biochemical properties (Table-1). […] For both the cases optimum enzyme activity was at 37° C. whereas optimum pH for Porteresia recombinant synthase (PINO1) was 8.0 and the same for Oryza recombinant synthase (RINO1) was 7.5.

[3] = not told
Experimental: FIG. 5: Gel filtration pattern on Superose-12 of RINO1 and PINO1 proteins in absence and presence of 400 mM NaCl. (A) RINO1 without NaCl; (B) RINO1 with NaCl; (C) PINO1 without NaCl; (D) PINO1 with NaCl. Insets depict SDS-PAGE and immuno dot blots of indicated fractions.

[4] = Tryptophan fluorescence in increasing NaCl concentrations; assay type: physicochemical; details: recombinant preparations
Experimental: FIG. 4: Tryptophan fluorescence of purified RINO1 (A) and PINO1 (B) proteins in increasing NaCl concentrations; tracing 1,2,3 & 4 correspond to 0, 100 mM, […] and 400 mM NaCl in the system.
Tryptophan Fluorescence spectra of the recombinant preparations of the inositol synthase(s) from Oryza sativa (RINO1) and Porteresia coarctata (PINO1) are shown in Panel A and B respectively in FIG. 4. […] The emission maxima in both the cases remain close to 336 nm.

[5] = Inositol synthase activity in presence of increasing NaCl concentration; assay type: biochemical; details: NaCl in vitro
From the text: With respect to salt-sensitivity, RINO1 and PINO1 proteins differ a great deal.
FIG. 3: Inositol synthase activity in presence of increasing NaCl concentration for purified native (A) and recombinant (B) enzymes.

[6] = enzyme activity; data from RayChaudhury et al. (1997); cited from earlier work

Temperature Optimum [2] [°C] | pH optimum [2] | Compound | Km [1] [µM] | Vmax [1] [μmol^−m] | Gel-permeation elution pattern on addition of salt [3] | salt-sensitivity of inositol synthase activity [5] | other results
35 | 7.5 | L-myo-inositol 1-phosphate synthase [PINO Native] |  |  |  |  | 
37 | 8.0 | L-myo-inositol 1-phosphate synthase [PINO Recombinant] |  |  | elutes at the same place |  | Temperature Optimum ([2]; listed as PINO1): 37 °C; pH optimum ([2]; listed as PINO1): 8.0; Tryptophan fluorescence intensity in presence of added salt ([4]; listed as PINO1): rather insensitive
37 | 7.5 | L-myo-inositol 1-phosphate synthase [RINO Recombinant] |  |  | substantial reduction in the original peak and concurrent appearance of a high molecular weight fraction | sensitive to NaCl | Temperature Optimum ([2]; listed as RINO1): 37 °C; pH optimum ([2]; listed as RINO1): 7.5; Tryptophan fluorescence intensity in presence of added salt ([4]; listed as RINO1): quenched significantly

The remaining lines, values behind:

Compound | Temperature Optimum [2] [°C] | pH optimum [2] | Km [1] [µM] | Vmax [1] [μmol^−m] | Gel-permeation elution pattern on addition of salt [3] | salt-sensitivity of inositol synthase activity [5] | other results
O=P(O)(O)OC[C@H]1OC(O)[C@H](O)[C@@H](O)[C@@H]1O (stereo partly shown) [G6P, Glucose 6 phosphate] |  |  | 1970 | 0.07 |  |  | 
NC(=O)c1ccc[n+]([C@@H]2O[C@H](COP(=O)([O-])OP(=O)(O)OC[C@H]3O[C@@H](n4cnc5c(N)ncnc54)[C@H](O)[C@@H]3O)[C@@H](O)[C@H]2O)c1 [NAD] |  |  | 140 | 0.09 |  |  | 
L-myo-inositol 1-phosphate synthase [RINO Native] |  |  |  |  |  | sensitive to NaCl | Temperature Optimum [6]: 35 °C; pH optimum [6]: 8.2
